In brackets after ≈: the same amount, converted by molar mass. Where two headings read alike, the source gives them in different places.
Key:
S. pneumoniae = test: MIC, broth micro-dilution (CLSI); type: cell-based, Streptococcus pneumoniae; settings: for MIC / MIC50 / MIC90: Streptococcus pneumoniae
S. aureus Xen29 = test: Time-dependent killing assay; type: cell-based, Staphylococcus aureus
Procedure: Time kill assays were performed (in duplicate) essentially as described previously with slight modifications. Briefly, a few colonies of luminescent S. pneumoniae strain D39LUX or luminescent S. aureus ATCC 12600 (Xen29) from an overnight HBA were emulsified in normal saline and adjusted to A600 nm = 0.10 (equivalent to approx. 5 × 10^7 c.f.u. per ml) and the bacterial suspension further diluted 1:20 in saline. […] The compounds were serially diluted in 100% DMSO at 100× the final desired concentration and 100 μl of appropriate concentrations added to each 10 ml preparation. Duplicate cultures were incubated at 37°C (+ 5% CO2 for S. pneumoniae D39), with samples withdrawn at 0, 0.5, 1, 2, 4, 6, 8 and 24 h, serially diluted 10-fold and plated on HBA overnight at 37°C (+ 5% CO2 for S. pneumoniae D39) for bacterial enumeration.

S. pneumoniae D39 = test: Membrane potential, DiOC2(3) fluorescence; type: cell-based, Streptococcus pneumoniae; settings: 16 μg/ml, pre-incubated 5 min; versus untreated and ampicillin
Procedure: (§1) To further examine the mechanism underlying the perturbation of the cell membrane of S. pneumoniae or S. aureus by the NCL compounds, the membrane potential of the cells was measured by fluorescence spectrometry using (DiOC2(3), essentially as described previously. Briefly, […] cells from an overnight HBA plate were grown in Todd-Hewitt broth supplemented with 1% yeast extract (THY) at 37°C, 5% CO2 until A600 nm = 0.5. […] The cuvette was then placed in a LS 55 Fluorescence Spectrometer (PerkinElmer) set at Ex. 488 nm/Em. 620 nm, with excitation and emission slit widths at 5 nm and 7 nm, respectively). […] All assays were performed at least twice.

S. aureus ATCC49775 = test: Membrane potential, DiOC2(3) fluorescence; type: cell-based, Staphylococcus aureus; settings: 16 μg/ml, pre-incubated 5 min; versus untreated and ampicillin
Procedure: as §1

[1] = Microsomal metabolic stability; type: in vitro ADME; settings: for microsomal CLint at 0.4 μg/ml / half-life at 0.4 μg/ml: liver microsomes, pH 7.4; for microsomal CLint at 0.4 μg/ml: read-out: CLINT; for Predicted EH: hepatic extraction ratio; for Predicted CLblood: microsome-predicted; for half-life at 0.4 μg/ml: 0.4 μg/ml compound, 0.4 mg/ml protein, NADPH
Procedure: The metabolic stability assay was performed by incubating 0.4 μg/ml of each test compound with human and mouse liver microsomes (Xenotech, Lot# 1210057 and 1310211, respectively) suspended in 0.1 M pH 7.4 phosphate buffer at 37°C and 0.4 mg/ml protein concentration. The metabolic reaction was initiated by the addition of an NADPH-regenerating system (i.e. NADPH is the cofactor required for CYP450-mediated metabolism) and quenched at various time points over a 60 min incubation period by the addition of acetonitrile containing diazepam as internal standard. Control samples (containing no NADPH) were included (and quenched at 2, 30 and 60 min) to monitor for potential degradation in the absence of cofactor. Test compound concentration vs time data were fitted to an exponential decay function to determine the first-order rate constant for substrate depletion. This was used to calculate a degradation half-life (T1/2), in vitro intrinsic clearance (CLINT), microsome-predicted blood clearance (CLblood) and a microsome-predicted hepatic extraction ratio (EH) according to the in vitro half-life method of Obach[53].

human red blood cells = test: Haemolysis assay; type: cell-based; settings: 1 h, 37°C; highest concentration used 128 μg/ml
Procedure: This was performed using fresh donor human red blood cells (RBCs), essentially as described previously. Fresh RBCs were washed in PBS three times at 500 × g for 5 min, and then resuspended 1% (w/v) in PBS. […] Thereafter, 198 μL of the 1% RBC solution was added into each well, and the mixture incubated for 1 h at 37°C, with shaking at 100 rpm. Quadruplicate wells containing either 1% Triton X100, or PBS only, served as controls. After incubation, the trays were centrifuged at 1,000 × g for 3 min and 100 μl of supernatant from each well transferred into a new 96-well tray. Absorbance was measured at A450 nm on a Multiskan Ascent 354 Spectrophotometer (Labsystems) and plotted against each dilution. Haemolytic titer was determined as the reciprocal of the dilution at which 50% of erythrocytes were lysed at A450 nm. The experiment was performed twice.

MDBK = test: In vitro cytotoxicity, WST-1; type: cell-based, bovine; settings: Bos taurus, 24 h exposure, read-out: IC50 values ± SEM
Excerpt: In order to ensure minimal off target mammalian cell cytotoxicity, we assayed NCL812, NCL195 and NCL219 for in vitro cytotoxicity using a panel of adherent mammalian cell lines: Caco-2 (human colorectal adenocarcinoma cell line), HEL 299 (non-cancerous human lung fibroblast cell line), Hep G2 (human hepatocellular carcinoma cell line), MDBK (normal bovine kidney cell line) and MCF7 (human mammary gland adenocarcinoma cell line). Cell lines were maintained in Dulbecco’s Modified Eagle’s Medium (DMEM; […] After 24 h incubation, media was removed, washed once with medium without antibiotics and fresh medium supplemented with 10% (vol/vol) FBS was added. […] Following exposure for 24 h, WST-1 reagent was added to each well at a final concentration of 10%. […] The IC50 value for each compound against each cell line was determined via non-linear regression (three parameters) using GraphPad Prism v6 software. The robustness of assays was confirmed with selected cell lines (Hep G2 and MDBK) seeded onto a 96–well Microwell Nunclon Delta Surface plate (Thermo Scientific Nunc; Cat No: 136101) at 5 × 10^4 cells per well.

SMILES: Cc1ccc(/C=N/Nc2cc(N/N=C/c3ccc(C)cc3)nc(N)n2)cc1 [NCL195, 4,6-bis(2-((E)-4-methylbenzylidene)hydrazinyl)pyrimidin-2-amine]
- MIC range (S. pneumoniae; 21 isolates): 2 to 8 µg/mL
- MIC range (S. pneumoniae; S1 Table isolates, 5% FBS + 3% washed RBC): 2 to 8 µg/mL
- MIC range (S. pneumoniae; S1 Table isolates, 10% FBS + 3% washed RBC): 2 to 8 µg/mL
- Change of MIC in the presence of serum (S. pneumoniae; S. pneumoniae D39, human, horse or mouse serum): remained the same
- MIC (S. pneumoniae; A66.1 (serotype 3), 5% FBS): 8 µg/mL (≈ 22.3 µM)
- MIC (S. pneumoniae; A66.1 (serotype 3), 10% FBS): 8 µg/mL (≈ 22.3 µM)
- MIC (S. pneumoniae; ATCC6303, ATCC 6303 (serotype 3), 5% FBS + 3% washed RBC): 4 µg/mL
- MIC (S. pneumoniae; ATCC6303, ATCC 6303 (serotype 3), 10% FBS + 3% washed RBC): 4 µg/mL
- MIC (S. pneumoniae; D39/D39LUX (serotype 2), 5% FBS): 8 µg/mL (≈ 22.3 µM)
- MIC (S. pneumoniae; D39/D39LUX (serotype 2), 10% FBS): 8 µg/mL (≈ 22.3 µM)
- MIC (S. pneumoniae; EF3030 (serotype 19F), 5% FBS): 8 µg/mL (≈ 22.3 µM)
- MIC (S. pneumoniae; EF3030 (serotype 19F), 10% FBS): 8 µg/mL (≈ 22.3 µM)
- MIC (S. pneumoniae; L82016 (serotype 6B), 5% FBS): 4 µg/mL (≈ 11.1 µM)
- MIC (S. pneumoniae; L82016 (serotype 6B), 10% FBS): 8 µg/mL (≈ 22.3 µM)
- MIC (S. pneumoniae; P9 (serotype 6A), 5% FBS): 8 µg/mL (≈ 22.3 µM)
- MIC (S. pneumoniae; P9 (serotype 6A), 10% FBS): 8 µg/mL (≈ 22.3 µM)
- MIC (S. pneumoniae; P21 (serotype 3), 5% FBS): 8 µg/mL (≈ 22.3 µM)
- MIC (S. pneumoniae; P21 (serotype 3), 10% FBS): 8 µg/mL (≈ 22.3 µM)
- MIC50 (S. pneumoniae; S1 Table isolates, 5% FBS): 4 µg/mL (≈ 11.1 µM)
- MIC90 (S. pneumoniae; S1 Table isolates, 5% FBS): 8 µg/mL (≈ 22.3 µM)
- MIC50 (S. pneumoniae; S1 Table isolates, 10% FBS): 8 µg/mL (≈ 22.3 µM)
- MIC90 (S. pneumoniae; S1 Table isolates, 10% FBS): 8 µg/mL (≈ 22.3 µM)
- MIC (S. pneumoniae; TIGR4 (serotype 4), 5% FBS): 4 µg/mL (≈ 11.1 µM)
- MIC (S. pneumoniae; TIGR4 (serotype 4), 10% FBS): 4 µg/mL (≈ 11.1 µM)
- MIC (S. pneumoniae; WCH16 (serotype 6A), 5% FBS): 8 µg/mL (≈ 22.3 µM)
- MIC (S. pneumoniae; WCH16 (serotype 6A), 10% FBS): 8 µg/mL (≈ 22.3 µM)
- MIC (S. pneumoniae; WCH43 (serotype 4), 5% FBS): 4 µg/mL (≈ 11.1 µM)
- MIC (S. pneumoniae; WCH43 (serotype 4), 10% FBS): 4 µg/mL (≈ 11.1 µM)
- MIC (S. pneumoniae; WCH46 (serotype 4), 5% FBS): 4 µg/mL (≈ 11.1 µM)
- MIC (S. pneumoniae; WCH46 (serotype 4), 10% FBS): 4 µg/mL (≈ 11.1 µM)
- MIC (S. pneumoniae; WCH57 (serotype 8), 5% FBS): 4 µg/mL (≈ 11.1 µM)
- MIC (S. pneumoniae; WCH57 (serotype 8), 10% FBS): 4 µg/mL (≈ 11.1 µM)
- MIC (S. pneumoniae; WCH77 (serotype 5), 5% FBS): 2 µg/mL (≈ 5.56 µM)
- MIC (S. pneumoniae; WCH77 (serotype 5), 10% FBS): 2 µg/mL (≈ 5.56 µM)
- MIC (S. pneumoniae; WCH86 (serotype 4), 5% FBS): 4 µg/mL (≈ 11.1 µM)
- MIC (S. pneumoniae; WCH86 (serotype 4), 10% FBS): 4 µg/mL (≈ 11.1 µM)
- MIC (S. pneumoniae; WCH89 (serotype 7), 5% FBS): 8 µg/mL (≈ 22.3 µM)
- MIC (S. pneumoniae; WCH89 (serotype 7), 10% FBS): 8 µg/mL (≈ 22.3 µM)
- MIC (S. pneumoniae; WCH92 (serotype 4), 5% FBS): 4 µg/mL (≈ 11.1 µM)
- MIC (S. pneumoniae; WCH92 (serotype 4), 10% FBS): 4 µg/mL (≈ 11.1 µM)
- MIC (S. pneumoniae; WCH137 (serotype 6A), 5% FBS): 8 µg/mL (≈ 22.3 µM)
- MIC (S. pneumoniae; WCH137 (serotype 6A), 10% FBS): 8 µg/mL (≈ 22.3 µM)
- MIC (S. pneumoniae; WCH158 (serotype 19F), 5% FBS): 4 µg/mL (≈ 11.1 µM)
- MIC (S. pneumoniae; WCH158 (serotype 19F), 10% FBS): 4 µg/mL (≈ 11.1 µM)
- MIC (S. pneumoniae; WCH184 (serotype 19F), 5% FBS): 8 µg/mL (≈ 22.3 µM)
- MIC (S. pneumoniae; WCH184 (serotype 19F), 10% FBS): 8 µg/mL (≈ 22.3 µM)
- MIC (S. pneumoniae; WCH211 (serotype 11), 5% FBS): 4 µg/mL (≈ 11.1 µM)
- MIC (S. pneumoniae; WCH211 (serotype 11), 10% FBS): 4 µg/mL (≈ 11.1 µM)
- MIC (S. pneumoniae; WU2 (serotype 3), 5% FBS): 8 µg/mL (≈ 22.3 µM)
- MIC (S. pneumoniae; WU2 (serotype 3), 10% FBS): 8 µg/mL (≈ 22.3 µM)
- Time to clear all Xen29 (S. aureus Xen29; 2× MIC): 6 h
- Time to clear all Xen29 (S. aureus Xen29; 4× MIC): 6 h
- Regrowth after 24 h (S. aureus Xen29; at the concentrations tested (2× and 4× MIC)): some S. aureus regrowth was observed
- Effect on generated membrane potential (S. pneumoniae D39): large reduction in the magnitude of the generated membrane potential
- Effect on generated membrane potential (S. aureus ATCC49775): large reduction in the magnitude of the generated membrane potential
- microsomal CLint at 0.4 μg/ml ([1]; human): < 7 µL/min/mg
- Predicted EH ([1]; human): <0.22
- Predicted CLblood ([1]; human): <5 mL/min/kg
- half-life at 0.4 μg/ml ([1]; human): > 4.12 h
- half-life at 0.4 μg/ml ([1]; mouse): > 4.12 h
- microsomal CLint at 0.4 μg/ml ([1]; mouse): < 7 µL/min/mg
- Predicted EH ([1]; mouse): <0.13
- Predicted CLblood ([1]; mouse): <16 mL/min/kg
- 50% haemolysis titre (HC50) (human red blood cells): > 128 µg/mL
- IC50 (MDBK): 17.3 ± 0.2 µg/mL (≈ 48.1 µM)

Reference: PMC5584945, “Evaluation of robenidine analog NCL195 as a novel broad-spectrum antibacterial agent” (PLoS ONE, 2017)
